Tests used:
[1] = system: Serratia marcescens expressing IMP-1 (CL5741); format: cell-based; conditions: with imipenem 1 μg/ml; 95% inhibition of bacterial growth
Description: (§1) Antibiotic Potentiation Activity: Determination of Synergistic Concentration
(§2) The bacterial strains tested included the clinical strains Escherichia coli expressing NDM-1 (CLB30005, CLB30016), Serratia marcescens expressing IMP-1 (CL5741), and Klebsiella pneumoniae expressing VIM-1 (IHMA599644). Inhibitor activity was measured in the presence and absence of imipenem in a 384-well microplate.
(§3) The clinical strains CLB30016, CL5741 and IHMA599644 were grown on trypticase soy agar containing 5% sheep's blood. The bacteria on agar plates were incubated at 35° C. with humidity overnight. The following day, individual colonies from each clinical strain were picked and resuspended in 5 ml saline to attain an OD600 of 0.14, 0.11, 0.15 and 0.13, for CLB30016, CL5741 and IHMA599644, respectively. These were further diluted 1:100 into 1.1× CAMHB and used to inoculate the test wells as described below.
(§4) Imipenem in 10 mM 3-(N-morpholino)propanesulfonic acid (MOPS, pH 7) was stored in single use aliquots at −80° C. […] On the day of the assay, 4 μl of antibiotic was added to 45 ul of bacteria followed by 1 μl of test compound and mixed by pipetting and with an orbital shaker. The concentration of antibiotic used in the assay was 1 μg/ml. Microplates were covered and incubated at 35° C. for 22 hours to 24 hours. At the end of the incubation, absorbance was determined using a spectrophotometer.

[2] = system: Pseudomonas aeruginosa PAO1 MB9798 (efflux+, IMP-1); conditions: ratio MITC95 PA 9798/MITC95 PA 9799; imipenem at 2 μg/mL
Summary of the method: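 Isogenic PAO1 pair (efflux+ MB9798, efflux− MB9799, both IMP-1) tested by microbroth MIC with fixed imipenem and/or ceftazidime, usually at CLSI breakpoint, plus fixed class A/C inhibitor against AmpC. MBL inhibitor titrated; concentration restoring susceptibility recorded and fold difference between strains taken as efflux extent.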

[3] = system: Escherichia coli expressing NDM-1 (CLB30005, CLB30016); format: cell-based; conditions: with imipenem 1 μg/ml; 95% inhibition of bacterial growth
Description: as §1, §2, §3, §4

With Nc1ccc2cccc(-c3ccc(S(=O)(=O)N[C@H]4CNC[C@H]4N)c(S(N)(=O)=O)c3-c3nn[nH]n3)c2n1 [Example 324, N1-((3S,4R)-4-aminopyrrolidin-3-yl)-4-(2-aminoquinolin-8-yl)-3-(1H-tetrazol-5-yl)benzene-1,2-disulfonamide] the “Serratia marcescens (IMP-1) MITC95” value [1] was 0.7813 µM and the Efflux ratio [2] was 1.00.
N[C@@H]1CNC[C@@H]1NS(=O)(=O)c1ccc(-c2cccn3ccnc23)c(-c2nn[nH]n2)c1S(N)(=O)=O [Example 328, N1-((3S,4R)-4-aminopyrrolidin-3-yl)-4-(imidazo[1,2-a]pyridin-8-yl)-3-(2H-tetrazol-5-yl)benzene-1,2-disulfonamide] was tested, and the “Serratia marcescens (IMP-1) MITC95” value [1] was 1.563 µM and the Efflux ratio [2] was 1.00.
For NCCNS(=O)(=O)c1ccc(-c2cccc3[nH]c([C@H](N)CO)nc23)c(-c2nn[nH]n2)c1S(N)(=O)=O [Example 330, (S)-4-(2-(1-amino-2-hydroxyethyl)-1H-benzo[d]imidazol-4-yl)-N1-(2-aminoethyl)-3-(2H-tetrazol-5-yl)benzene-1,2-disulfonamide], the “Serratia marcescens (IMP-1) MITC95” value [1] was 1.563 µM and the Efflux ratio [2] was 1.00.
In the case of N[C@H]1C=C(c2ccc(S(=O)(=O)N[C@@H]3CCNC3)c(S(N)(=O)=O)c2-c2nn[nH]n2)CCC1 [Example 339, (R)-5′-amino-N4-((R)-pyrrolidin-3-yl)-2-(2H-tetrazol-5-yl)-2′,3′,4′,5′-tetrahydro-[1,1′-biphenyl]-3,4-disulfonamide], the “Serratia marcescens (IMP-1) MITC95” value [1] was 1.563 µM and the Efflux ratio [2] was 4.00.
In the case of N[C@@H]1C=C(c2ccc(S(=O)(=O)N[C@@H]3CCNC3)c(S(N)(=O)=O)c2-c2nn[nH]n2)CCC1 [Example 340, (S)-5′-amino-N4-((R)-pyrrolidin-3-yl)-2-(2H-tetrazol-5-yl)-2′,3′,4′,5′-tetrahydro[1,1′-biphenyl]-3,4-disulfonamide], the “Serratia marcescens (IMP-1) MITC95” value [1] was 1.563 µM and the Efflux ratio [2] was 4.00.
In the case of NCCNS(=O)(=O)c1ccc(-c2cccc3ccc(N)nc23)c(-c2nn[nH]n2)c1S(N)(=O)=O [Example 355, N1-(2-aminoethyl)-4-(2-aminoquinolin-8-yl)-3-(2H-tetrazol-5-yl)benzene-1,2-disulfonamide], the “Serratia marcescens (IMP-1) MITC95” value [1] was 0.7813 µM and the Efflux ratio [2] was 1.00.
In the case of NCCNS(=O)(=O)c1ccc(-c2cccn3ccnc23)c(-c2nn[nH]n2)c1S(N)(=O)=O [Example 361, N1-(2-aminoethyl)-4-(imidazo[1,2-a]pyridin-8-yl)-3-(2H-tetrazol-5-yl)benzene-1,2-disulfonamide], the “Serratia marcescens (IMP-1) MITC95” value [1] was 0.7813 µM and the Efflux ratio [2] was 1.00.
For NC[C@@H](N)CNS(=O)(=O)c1ccc(-c2cnc3cc[nH]c3c2)c(-c2nn[nH]n2)c1S(N)(=O)=O [Example 378, (R)-N 1-(2,3-diaminopropyl)-4-(1H-pyrrolo[3,2-b]pyridin-6-yl)-3-(2H-tetrazol-5-yl)benzene-1,2-disulfonamide], the “Serratia marcescens (IMP-1) MITC95” value [1] was 1.563 µM and the Efflux ratio [2] was 2.00.
NCC(CN)NS(=O)(=O)c1ccc(-c2cccn3ccnc23)c(-c2nn[nH]n2)c1S(N)(=O)=O [Example 386, N1-(1,3-diaminopropan-2-yl)-4-(imidazo[1,2-a]pyridin-8-yl)-3-(2H-tetrazol-5-yl) benzene-1,2-disulfonamide] was tested, and the “Serratia marcescens (IMP-1) MITC95” value [1] was 1.563 µM and the Efflux ratio [2] was 1.00.
C[C@H](CN)NS(=O)(=O)c1ccc(-c2cc(F)cc3[nH]c(N)nc23)c(-c2nn[nH]n2)c1S(N)(=O)=O [Example 396, (R)-4-(2-amino-6-fluoro-1H-benzo[d]imidazol-4-yl)-N^1-(1-aminopropan-2-yl)-3-(2H-tetrazol-5-yl)benzene-1,2-disulfonamide] was tested, and the “Escherichia coli (NDM-1) MITC95” value [3] was 0.7813 µM.
For NC[C@@H](CO)NS(=O)(=O)c1ccc(-c2cccc3[nH]c(N)nc23)c(-c2nnn[nH]2)c1S(N)(=O)=O [Example 426, (S)-4-(2-Amino-1H-benzo[d]imidazol-4-yl)-N^1-(1-amino-3-hydroxypropan-2-yl)-3-(1H-tetrazol-5-yl)benzene-1,2-disulfonamide], the “Escherichia coli (NDM-1) MITC95” value [3] was 0.3906 µM.
With NCC(CN)NS(=O)(=O)c1ccc(-c2cccc3sc(N)nc23)c(-c2nn[nH]n2)c1S(N)(=O)=O [Example 436, 4-(2-aminobenzo[d]thiazol-4-yl)-N1-(1,3-diaminopropan-2-yl)-3-(2H-tetrazol-5-yl)benzene-1,2-disulfonamide] the “Escherichia coli (NDM-1) MITC95” value [3] was 0.7813 µM.
For NCC(CN)NS(=O)(=O)c1ccc(-c2ccnc(-c3cnc(N)[nH]3)c2)c(-c2nnn[nH]2)c1S(N)(=O)=O [Example 437, 4-(2-(2-Amino-1H-imidazol-5-yl)pyridin-4-yl)-N^1-(1,3-diaminopropan-2-yl)-3-(1H-tetrazol-5-yl)benzene-1,2-disulfonamide], the “Escherichia coli (NDM-1) MITC95” value [3] was 0.7813 µM.
NCCNS(=O)(=O)c1ccc(-c2cccc3[nH]c(C4CNC4)nc23)c(-c2nn[nH]n2)c1S(N)(=O)=O [Example 443, N1-(2-aminoethyl)-4-(2-(azetidin-3-yl)-1H-benzo[d]imidazol-4-yl)-3-(2H-tetrazol-5-yl)benzene-1,2-disulfonamide] was tested, and the “Escherichia coli (NDM-1) MITC95” value [3] was 0.7813 µM.
NCCNS(=O)(=O)c1ccc(-c2cccc3[nH]c([C@@H]4C[C@@H](O)CN4)nc23)c(-c2nn[nH]n2)c1S(N)(=O)=O [Example 444, N1-(2-aminoethyl)-4-(2-((2S,4R)-4-hydroxypyrrolidin-2-yl)-1H-benzo[d]imidazol-4-yl)-3-(2H-tetrazol-5-yl)benzene-1,2-disulfonamide] was tested, and the “Escherichia coli (NDM-1) MITC95” value [3] was 1.563 µM.
With NCCNS(=O)(=O)c1ccc(-c2cccc3c2CCCN3)c(-c2nn[nH]n2)c1S(N)(=O)=O [Example 455, N1-(2-Aminoethyl)-4-(1,2,3,4-tetrahydroquinolin-5-yl)-3-(2H-tetrazol-5-yl)benzene-1,2-disulfonamide] the “Escherichia coli (NDM-1) MITC95” value [3] was 1.563 µM.
In the case of NCCNc1cc(-c2ccc(S(=O)(=O)NCCO)c(S(N)(=O)=O)c2-c2nn[nH]n2)ccn1 [Example 457, 4-(2-((2-aminoethyl)amino)pyridin-4-yl)-N1-(2-hydroxyethyl)-3-(2H-tetrazol-5-yl)benzene-1,2-disulfonamide], the “Escherichia coli (NDM-1) MITC95” value [3] was 1.563 µM.
With NCCNc1cc(-c2ccc(S(=O)(=O)N[C@@H]3CCNC3)c(S(N)(=O)=O)c2-c2nn[nH]n2)ccn1 [Example 458, (R)-4-(2-((2-aminoethyl)amino)pyridin-4-yl)-N1-(pyrrolidin-3-yl)-3-(2H-tetrazol-5-yl)benzene-1,2-disulfonamide] the “Escherichia coli (NDM-1) MITC95” value [3] was 0.7813 µM.
For NCc1nc2cc(-c3ccc(S(=O)(=O)NC[C@H](O)CN)c(S(N)(=O)=O)c3-c3nn[nH]n3)ccc2[nH]1 [Example 464, (R)—N1-(3-amino-2-hydroxypropyl)-4-(2-(aminomethyl)-1H-benzo[d]imidazole-5-yl)-3-(2H-tetrazol-5-yl)benzene-1,2-disulfonamide], the “Escherichia coli (NDM-1) MITC95” value [3] was 0.7813 µM.
In the case of NCc1nc2cc(-c3ccc(S(=O)(=O)NC[C@@H](O)CN)c(S(N)(=O)=O)c3-c3nn[nH]n3)ccc2[nH]1 [Example 465, (S)-N1-(3-amino-2-hydroxypropyl)-4-(2-(aminomethyl)-1H-benzo[d]imidazol-5-yl)-3-(2H-tetrazol-5-yl)benzene-1,2-disulfonamide], the “Escherichia coli (NDM-1) MITC95” value [3] was 0.7813 µM.

Source: patent US10544130B2, “Metallo-beta-lactamase inhibitors” (priority 2015, dated 2020)
